Columns and labels:
barnyardgrass [1] = assay: Test C preemergence; assay type: in vivo, Echinochloa crus-galli; details: for Barnyardgrass plant response rating: preemergence
How it was run: (§1)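 Injury was assessed visually against controls 13 to 15 days after application, with 0 meaning no effect and 100 full control; missing entries are shown as a dash. Preemergence sprays hit seeded loam–sand soil, postemergence sprays hit 1- to 4-leaf plants.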

rice = assay: Test B flooded paddy test; assay type: in vivo, Oryza sativa; details: Flood, 250 g ai/ha; 0 to 100 scale where 0 is no effect and 100 is complete control
How it was run: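 Scores from 0 (no effect) to 100 (complete control) are visual comparisons with controls, taken 13 to 15 days after compound was applied into floodwater 3 cm deep around 2-leaf plants.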

pigweed [2] = assay: Test A preemergence; assay type: in vivo, Amaranthus retroflexus; details: 0 to 100 scale where 0 is no effect and 100 is complete control
How it was run: (§2)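 Scoring: eye-based comparison with untreated controls, 0 for no effect through 100 for complete control, at about day 10. Treatments: directed soil spray preemergence; foliar spray postemergence on 2–10 cm plants at the one- to two-leaf stage. Medium: loam soil with sand.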

yellow nutsedge [3] = assay: Test C postemergence; assay type: in vivo, Cyperus esculentus; details: for Plant response rating, Nutsedge, Yellow: scale 0 to 100 (0 no effect, 100 complete control)
How it was run: as §1

wheat, winter = assay: Test C postemergence; assay type: in vivo, Triticum aestivum; details: for Plant response rating, Wheat: scale 0 to 100 (0 no effect, 100 complete control)
How it was run: as §1

yellow nutsedge [4] = assay: Test C preemergence; assay type: in vivo, Cyperus esculentus; details: for Nutsedge, Yellow plant response rating: preemergence
How it was run: as §1

barnyardgrass [5] = assay: Test C postemergence; assay type: in vivo, Echinochloa crus-galli; details: for Plant response rating, Barnyardgrass: scale 0 to 100 (0 no effect, 100 complete control)
How it was run: as §1

giant foxtail [6] = assay: Test A preemergence; assay type: in vivo, Setaria faberii; details: 0 to 100 scale where 0 is no effect and 100 is complete control
How it was run: as §2

galium = assay: Test C postemergence; assay type: in vivo, Galium aparine; details: for Plant response rating, Galium: scale 0 to 100 (0 no effect, 100 complete control)
How it was run: as §1

corn = assay: Test C postemergence; assay type: in vivo, Zea mays; details: for Plant response rating, Corn: scale 0 to 100 (0 no effect, 100 complete control)
How it was run: as §1

pigweed [7] = assay: Test C preemergence; assay type: in vivo, Amaranthus retroflexus; details: for Pigweed plant response rating: preemergence
How it was run: as §1

kochia = assay: Test C postemergence; assay type: in vivo, Kochia scoparia; details: for Plant response rating, Kochia: scale 0 to 100 (0 no effect, 100 complete control)
How it was run: as §1

Italian ryegrass = assay: Test C postemergence; assay type: in vivo, Lolium multiflorum; details: for Plant response rating, Ryegrass, Italian: scale 0 to 100 (0 no effect, 100 complete control)
How it was run: as §1

giant foxtail [8] = assay: Test C preemergence; assay type: in vivo, Setaria faberii; details: for Foxtail, Giant plant response rating: preemergence
How it was run: as §1

[9] = 16 g ai/ha, scale 0 to 100 (0 no effect, 100 complete control)
[10] = 62 g ai/ha, scale 0 (no effect) to 100 (complete control)
[11] = 125 g ai/ha, scale 0 (no effect) to 100 (complete control)
[12] = Preemergence, 31 g ai/ha, scale 0 to 100, 0 no effect, 100 complete control
[13] = 16 g ai/ha, postemergence, 0 is no effect, 100 is complete control
[14] = 125 g ai/ha, postemergence, visual rating

## Clc1cnc(Oc2cccc(Br)c2-n2cc(Br)nn2)nc1 [Compound 129]
Barnyardgrass [1]; [9]
  Barnyardgrass plant response rating: 5
Barnyardgrass [1]; [10]
  Barnyardgrass plant response rating: 40
Barnyardgrass [1]; [11]
  Barnyardgrass plant response rating: 90
Barnyardgrass [1]; [12]
  Plant response rating, Barnyardgrass: 15
rice
  Plant response rating, Rice: 0
Pigweed [2]; 125 g ai/ha
  Plant response rating, Pigweed: 100
Pigweed [2]; 500 g ai/ha
  Pigweed plant response rating: 100
Yellow nutsedge [3]; [13]
  Plant response rating (0 to 100), Nutsedge, Yellow: 0
Yellow nutsedge [3]; [14]
  Plant response rating, Nutsedge, Yellow: 10
Yellow nutsedge [3]; Postemergence, 62 g ai/ha
  Plant response rating, Nutsedge, Yellow: 5
wheat, winter; [13]
  Plant response rating (0 to 100), Wheat: 0
wheat, winter; [14]
  Plant response rating, Wheat: 5
wheat, winter; Postemergence, 62 g ai/ha
  Plant response rating, Wheat: 0
Yellow nutsedge [4]; [9]
  Nutsedge, Yellow plant response rating: 0
Yellow nutsedge [4]; [10]
  Nutsedge, Yellow plant response rating: 5
Yellow nutsedge [4]; [11]
  Nutsedge, Yellow plant response rating: 25
Yellow nutsedge [4]; [12]
  Plant response rating, Nutsedge, Yellow: 0
Barnyardgrass [5]; [13]
  Plant response rating (0 to 100), Barnyardgrass: 5
Barnyardgrass [5]; [14]
  Plant response rating, Barnyardgrass: 5
Barnyardgrass [5]; Postemergence, 31 g ai/ha, 13 to 15 days
  Plant response rating, Barnyardgrass: 5
Barnyardgrass [5]; Postemergence, 62 g ai/ha
  Plant response rating, Barnyardgrass: 5
Giant foxtail [6]; 125 g ai/ha
  Plant response rating, Foxtail, Giant: 100
Giant foxtail [6]; 500 g ai/ha
  Foxtail, Giant plant response rating: 100
galium; [13]
  Plant response rating (0 to 100), Galium: 50
galium; [14]
  Plant response rating, Galium: 85
galium; Postemergence, 62 g ai/ha
  Plant response rating, Galium: 55
corn; [13]
  Plant response rating (0 to 100), Corn: 5
corn; [14]
  Plant response rating, Corn: 15
corn; Postemergence, 62 g ai/ha
  Plant response rating, Corn: 10
Pigweed [7]; [9]
  Pigweed plant response rating: 98
Pigweed [7]; [10]
  Pigweed plant response rating: 100
Pigweed [7]; [11]
  Pigweed plant response rating: 100
Pigweed [7]; [12]
  Plant response rating, Pigweed: 100
kochia; [13]
  Plant response rating (0 to 100), Kochia: 90
kochia; [14]
  Plant response rating, Kochia: 100
kochia; Postemergence, 62 g ai/ha
  Plant response rating, Kochia: 95
Italian ryegrass; [13]
  Plant response rating (0 to 100), Ryegrass, Italian: 0
Italian ryegrass; [14]
  Plant response rating, Ryegrass, Italian: 5
Italian ryegrass; Postemergence, 62 g ai/ha
  Plant response rating, Ryegrass, Italian: 20
Giant foxtail [8]; [9]
  Foxtail, Giant plant response rating: 0
Giant foxtail [8]; [10]
  Foxtail, Giant plant response rating: 100
Giant foxtail [8]; [11]
  Foxtail, Giant plant response rating: 100
Giant foxtail [8]; [12]
  Plant response rating, Foxtail, Giant: 80

From patent publication US9695155B2, “Herbicidal substituted pyrimidinyloxy benzene compounds” (E. I. DU PONT DE NEMOURS AND COMPANY, priority 2013, dated 2017)
